Reference: patent publication US6797694B2, “Chemical compounds having ion channel blocking activity for the treatment of immune dysfunction” (priority 1999, dated 2004)

Test system: T cells
Assay: Inhibition of antigen (PPD) induced T cell proliferation, [3H]thymidine incorporation
Format: cell-based
Conditions: solvent control 26.1
Method: The chemical compounds used according to the invention prevent immunological proliferation by selective inhibition of the Ca^2+-activated K-channels in T- and B-lymphocytes. This effect may be verified using various proliferation assays. In this experiment the proliferative assay described by Ødum et al. [Ødum N, Kanner S B, Ledbetter J A, & Svejgaard A; J. Immunol. 1993 150 (12) 5289-5298] was used.
Assays were performed in culture medium (RPMI 1640; available from Gibco, Grand Island, N.Y.) supplemented with 10% pooled human serum, 2 mM L-glutamine, 100 μg/ml penicillin, and 100 μg/ml streptomycin (available from Novo Nordisk, Copenhagen, Denmark) in 96-well round bottom tissue culture plates (available from Nunc, Roskilde, Denmark) with a final volume of 200 μl.
T cells were pre-incubated for three hours with the test compounds before addition of antigen (PPD; Purified protein derivative, available from Statens Serum Institut, Denmark; 100 μg/ml). T cells were cultured at 5×10^4 cells/well for 144 hours. Twelve hours before harvest, [^3H]thymidine ([…]) was added. The cells were harvested onto glass fibre filters, and the [^3H]thymidine incorporation was measured in a scintillation counter. The results were expressed as mean counts per minute (cpm) from triplicate cultures.

CC(=O)C(c1ccccc1)(c1ccccc1)c1ccccc1 [C, 1,1,1-triphenylacetone]
T Cell Proliferation (test compound 10 μM): 18 cpm × 10^−3 | T Cell Proliferation (test compound 25 μM): 19 cpm × 10^−3

OC(c1ccccc1)(c1ccccc1)c1ccc(Cl)cc1 [A, (4-chlorophenyl-diphenyl)-carbinol]
T Cell Proliferation (test compound 10 μM): 19.8 cpm × 10^−3 | T Cell Proliferation (test compound 25 μM): 18.1 cpm × 10^−3
